Assays:
[1] = target: T1, human prostaglandin transporter (hPGT) (Homo sapiens, UniProt Q92959); test: Inhibition of hPGT-mediated tracer PGE2 uptake in transfected HeLa cells; assay type: cell-based
[2] = target: T1, human prostaglandin transporter (hPGT); test: Timed uptake of tracer 3[H]-prostaglandins into HeLa cells expressing clone 3 (hPGT); assay type: cell-based; conditions: for difference between transport rates: 10 and 20 minutes; for 2-minute rank-order of uptakes: 2 minutes, 27° C., tracer 0.6-1.0 nM
rat PGT [3] = test: Tracer prostaglandin transport by rat PGT re-expressed in HeLa cells; assay type: cell-based; conditions: data not shown
rat PGT [4] = conditions: reference 36; cited from earlier work
[5] = HeLa, 10 min, read-out: percent of the control 10-min tracer PGE2 uptake

Structure (SMILES)	remaining activity at 10 µM [1, 5] [%]	remaining activity at 100 µM [1, 5] [%]	remaining activity at 0.1 µM [1, 5] [%]	difference between transport rates [2]	2-minute rank-order of uptakes [2]	further results
CCCN(CCC)S(=O)(=O)c1ccc(C(=O)O)cc1 [Probenecid]	104 ± 5.2	92.8 ± 2	–	–	–	potency as inhibitor of hPGT (in words) [1]: much less effective
CCCCC[C@H](O)/C=C/[C@@H]1[C@@H](C/C=C\CCCC(=O)O)[C@@H](O)C[C@H]1O [PGF2α]	–	–	45 ± 1.3	essentially no difference	PGE2 >PGE1>PGF2α >PGD2 >TxB2	–
NS(=O)(=O)c1cc(C(=O)O)c(NCc2ccco2)cc1Cl [Furosemide]	91.5 ± 3.3	63.3 ± 1.7	–	–	–	–
CCCCC[C@H](O)/C=C/[C@H]1C(=O)C[C@H](O)[C@@H]1C/C=C\CCCC(=O)O [PGD2]	–	–	47.9 ± 0.9	essentially no difference	PGE2 >PGE1>PGF2α >PGD2 >TxB2	transport rate of tracer relative to PGE2 (rat PGT [3]): at a rate equivalent to that of PGE2
CCCCC[C@H](O)/C=C/[C@H]1[C@H](O)CC(=O)[C@@H]1C/C=C\CCCC(=O)O [PGE2]	–	–	–	essentially no difference	PGE2 >PGE1>PGF2α >PGD2 >TxB2	–
COc1ccc2c(c1)c(CC(=O)O)c(C)n2C(=O)c1ccc(Cl)cc1 [Indomethacin]	114 ± 3.8	82.5 ± 1	–	–	–	potency as inhibitor of hPGT (in words) [1]: much less effective
CCCCC[C@H](O)/C=C/[C@H]1[C@H](O)CC(=O)[C@@H]1CCCCCCC(=O)O [PGE1]	–	–	50.8 ± 3.4	essentially no difference	PGE2 >PGE1>PGF2α >PGD2 >TxB2	–
CCCCC[C@H](O)/C=C/[C@H]1OC(O)C[C@H](O)[C@@H]1C/C=C\CCCC(=O)O (stereo partly shown) [TxB2]	–	–	–	–	PGE2 >PGE1>PGF2α >PGD2 >TxB2	remaining activity at 0.5 µM [1, 5]: 26.7 ± 0.1%; transport rate relative to PGE2 or PGF2α ([2]; hPGT, FIG. 2): about half that of PGE2 or PGF2α; transport rate relative to PGE2 or PGF2α (rat PGT [4]): about half that of PGE2 or PGF2α
CC#CCC(C)[C@H](O)/C=C/[C@@H]1[C@H]2C/C(=C/CCCC(=O)O)C[C@H]2C[C@H]1O (stereo partly shown) [iloprost]	–	–	–	–	–	transport above baseline ([2]; 3[H]-iloprost 7.9 nM, data not shown): not transported above baseline

Source: patent US5792851A, “Human prostaglandin transporter” (Albert Einstin College of Medicine of Yeshiva University, a …, priority 1996, dated 1998)
